Reference: US11331369B2, “Endoparasitic depsipeptides” (Zoetis Services LLC, priority 2017, dated 2022)

system: microfilariae of Dirofilaria immitis; experiment: Dirofilaria immitis, Microfilaria (DiMF) In vitro Assay; assay type: cell-based; settings: 72 h, read-out: DiMF Minimum Effective Dose (MED), approximately 72 hours incubation, microfilariae assessed for survival or paralysis

| SMILES | minimal effective concentration [µM] |
| --- | --- |
| CC(C)C[C@H]1C(=O)O[C@H](Cc2ccc(Cn3cc(C#CC(C)(C)C)cn3)cc2)C(=O)N(C)[C@@H](CC(C)C)C(=O)O[C@H](C)C(=O)N(C)[C@@H](CC(C)C)C(=O)O[C@H](Cc2ccccc2)C(=O)N(C)[C@@H](CC(C)C)C(=O)O[C@H](C)C(=O)N1C [Example 2-71, (3S,6R,9S,12R,15S,18R,21S,24R)-6-benzyl-18-(4-((4-(3,3-dimethylbut-1-yn-1-yl)-1H-pyrazol-1-yl)methyl)benzyl)-3,9,15,21-tetraisobutyl-4,10,12,16,22,24-hexamethyl-1,7,13,19-tetraoxa-4,10,16,22-tetraazacyclotetracosan-2,5,8,11,14,17,20,23-octaone] | 0.01 to 0.1 |
| CC(C)C[C@H]1C(=O)O[C@H](Cc2ccc(Cn3ccc(C(C)(C)C)n3)cc2)C(=O)N(C)[C@@H](CC(C)C)C(=O)O[C@H](C)C(=O)N(C)[C@@H](CC(C)C)C(=O)O[C@H](Cc2ccccc2)C(=O)N(C)[C@@H](CC(C)C)C(=O)O[C@H](C)C(=O)N1C [Example 2-72, (3S,6R,9S,12R,15S,18R,21S,24R)-6-benzyl-18-(4-((3-(tert-butyl)-1H-pyrazol-1-yl)methyl)benzyl)-3,9,15,21-tetraisobutyl-4,10,12,16,22,24-hexamethyl-1,7,13,19-tetraoxa-4,10,16,22-tetraazacyclotetracosan-2,5,8,11,14,17,20,23-octaone] | 0.01 to 0.1 |
| CC(C)C[C@H]1C(=O)O[C@H](Cc2ccc(Cn3cc(C#CC4CC4)cn3)cc2)C(=O)N(C)[C@@H](CC(C)C)C(=O)O[C@H](C)C(=O)N(C)[C@@H](CC(C)C)C(=O)O[C@H](Cc2ccccc2)C(=O)N(C)[C@@H](CC(C)C)C(=O)O[C@H](C)C(=O)N1C [Example 2-75, (3S,6R,9S,12R,15S,18R,21S,24R)-6-benzyl-18-(4-((4-(cyclopropylethynyl)-1H-pyrazol-1-yl)methyl)benzyl)-3,9,15,21-tetraisobutyl-4,10,12,16,22,24-hexamethyl-1,7,13,19-tetraoxa-4,10,16,22-tetraazacyclotetracosan-2,5,8,11,14,17,20,23-octaone] | 0.001 to 0.01 |
| Cc1nn(Cc2ccc(C[C@H]3OC(=O)[C@H](CC(C)C)N(C)C(=O)[C@@H](C)OC(=O)[C@H](CC(C)C)N(C)C(=O)[C@@H](Cc4ccccc4)OC(=O)[C@H](CC(C)C)N(C)C(=O)[C@@H](C)OC(=O)[C@H](CC(C)C)N(C)C3=O)cc2)c(C)c1C#N [Example 2-78, 1-(4-(((2R,5S,8R,11S,14R,17S,20R,23S)-14-benzyl-5,11,17,23-tetraisobutyl-4,8,10,16,20,22-hexamethyl-3,6,9,12,15,18,21,24-octaoxo-1,7,13,19-tetraoxa-4,10,16,22-tetraazacyclotetracosan-2-yl)methyl)benzyl)-3,5-dimethyl-1H-pyrazole-4-carbonitrile] | 0.01 to 0.1 |
| Cc1nn(Cc2ccc(C[C@H]3OC(=O)[C@H](CC(C)C)N(C)C(=O)[C@@H](C)OC(=O)[C@H](CC(C)C)N(C)C(=O)[C@@H](Cc4ccccc4)OC(=O)[C@H](CC(C)C)N(C)C(=O)[C@@H](C)OC(=O)[C@H](CC(C)C)N(C)C3=O)cc2)c(C)c1C(F)(F)F [Example 2-81, (3S,6R,9S,12R,15S,18R,21S,24R)-6-benzyl-18-(4-((3,5-dimethyl-4-(trifluoromethyl)-1H-pyrazol-1-yl)methyl)benzyl)-3,9,15,21-tetraisobutyl-4,10,12,16,22,24-hexamethyl-1,7,13,19-tetraoxa-4,10,16,22-tetraazacyclotetracosan-2,5,8,11,14,17,20,23-octaone] | 0.01 to 0.1 |
| CCc1nn(Cc2ccc(C[C@H]3OC(=O)[C@H](CC(C)C)N(C)C(=O)[C@@H](C)OC(=O)[C@H](CC(C)C)N(C)C(=O)[C@@H](Cc4ccccc4)OC(=O)[C@H](CC(C)C)N(C)C(=O)[C@@H](C)OC(=O)[C@H](CC(C)C)N(C)C3=O)cc2)c(CC)c1[N+](=O)[O-] [Example 2-82, (3S,6R,9S,12R,15S,18R,21S,24R)-6-benzyl-18-(4-((3,5-diethyl-4-nitro-1H-pyrazol-1-yl)methyl)benzyl)-3,9,15,21-tetraisobutyl-4,10,12,16,22,24-hexamethyl-1,7,13,19-tetraoxa-4,10,16,22-tetraazacyclotetracosan-2,5,8,11,14,17,20,23-octaone] | 0.01 to 0.1 |
| CC(C)C[C@H]1C(=O)O[C@H](Cc2ccc(Cn3ccc(C(C)C)n3)cc2)C(=O)N(C)[C@@H](CC(C)C)C(=O)O[C@H](C)C(=O)N(C)[C@@H](CC(C)C)C(=O)O[C@H](Cc2ccccc2)C(=O)N(C)[C@@H](CC(C)C)C(=O)O[C@H](C)C(=O)N1C [Example 2-83, (3S,6R,9S,12R,15S,18R,21S,24R)-6-benzyl-3,9,15,21-tetraisobutyl-18-(4-((3-isopropyl-1H-pyrazol-1-yl)methyl)benzyl)-4,10,12,16,22,24-hexamethyl-1,7,13,19-tetraoxa-4,10,16,22-tetraazacyclotetracosan-2,5,8,11,14,17,20,23-octaone] | 0.01 to 0.1 |
| CC(C)C[C@H]1C(=O)O[C@H](Cc2ccc(Cn3cc(-c4cn(C)nn4)cn3)cc2)C(=O)N(C)[C@@H](CC(C)C)C(=O)O[C@H](C)C(=O)N(C)[C@@H](CC(C)C)C(=O)O[C@H](Cc2ccccc2)C(=O)N(C)[C@@H](CC(C)C)C(=O)O[C@H](C)C(=O)N1C [Example 2-84, (3S,6R,9S,12R,15S,18R,21S,24R)-6-benzyl-3,9,15,21-tetraisobutyl-4,10,12,16,22,24-hexamethyl-18-(4-((4-(1-methyl-1H-1,2,3-triazol-4-yl)-1H-pyrazol-1-yl)methyl)benzyl)-1,7,13,19-tetraoxa-4,10,16,22-tetraazacyclotetracosan-2,5,8,11,14,17,20,23-octaone] | 0.01 to 0.1 |
| CC(C)C[C@H]1C(=O)O[C@H](Cc2ccc(Cn3nc(C4CC4)c(N)c3C3CC3)cc2)C(=O)N(C)[C@@H](CC(C)C)C(=O)O[C@H](C)C(=O)N(C)[C@@H](CC(C)C)C(=O)O[C@H](Cc2ccccc2)C(=O)N(C)[C@@H](CC(C)C)C(=O)O[C@H](C)C(=O)N1C [Example 2-85, (3S,6R,9S,12R,15S,18R,21S,24R)-6-(4-((4-amino-3,5-dicyclopropyl-1H-pyrazol-1-yl)methyl)benzyl)-18-benzyl-3,9,15,21-tetraisobutyl-4,10,12,16,22,24-hexamethyl-1,7,13,19-tetraoxa-4,10,16,22-tetraazacyclotetracosan-2,5,8,11,14,17,20,23-octaone] | 0.01 to 0.1 |
| CCc1nn(Cc2ccc(C[C@H]3OC(=O)[C@H](CC(C)C)N(C)C(=O)[C@@H](C)OC(=O)[C@H](CC(C)C)N(C)C(=O)[C@@H](Cc4ccccc4)OC(=O)[C@H](CC(C)C)N(C)C(=O)[C@@H](C)OC(=O)[C@H](CC(C)C)N(C)C3=O)cc2)c(CC)c1N [Example 2-86, (3S,6R,9S,12R,15S,18R,21S,24R)-6-(4-((4-amino-3,5-diethyl-1H-pyrazol-1-yl)methyl)benzyl)-18-benzyl-3,9,15,21-tetraisobutyl-4,10,12,16,22,24-hexamethyl-1,7,13,19-tetraoxa-4,10,16,22-tetraazacyclotetracosan-2,5,8,11,14,17,20,23-octaone] | 0.01 to 0.1 |
| CC(C)C[C@H]1C(=O)O[C@H](Cc2ccc(Cn3ccc(C4CCCC4)n3)cc2)C(=O)N(C)[C@@H](CC(C)C)C(=O)O[C@H](C)C(=O)N(C)[C@@H](CC(C)C)C(=O)O[C@H](Cc2ccccc2)C(=O)N(C)[C@@H](CC(C)C)C(=O)O[C@H](C)C(=O)N1C [Example 2-88, (3S,6R,9S,12R,15S,18R,21S,24R)-6-benzyl-18-(4-((3-cyclopentyl-1H-pyrazol-1-yl)methyl)benzyl)-3,9,15,21-tetraisobutyl-4,10,12,16,22,24-hexamethyl-1,7,13,19-tetraoxa-4,10,16,22-tetraazacyclotetracosan-2,5,8,11,14,17,20,23-octaone] | 0.01 to 0.1 |
| CC(C)C[C@H]1C(=O)O[C@H](Cc2cccc(Cn3cccn3)c2)C(=O)N(C)[C@@H](CC(C)C)C(=O)O[C@H](C)C(=O)N(C)[C@@H](CC(C)C)C(=O)O[C@H](Cc2cccc(Cn3cccn3)c2)C(=O)N(C)[C@@H](CC(C)C)C(=O)O[C@H](C)C(=O)N1C [Example 4-1, (3S,6R,9S,12R,15S,18R,21S,24R)-6,18-bis(3-((1H-pyrazol-1-yl)methyl)benzyl)-3,9,15,21-tetraisobutyl-4,10,12,16,22,24-hexamethyl-1,7,13,19-tetraoxa-4,10,16,22-tetraazacyclotetracosan-2,5,8,11,14,17,20,23-octaone] | 0.001 to 0.01 |
| COc1cnn(Cc2cccc(C[C@H]3OC(=O)[C@H](CC(C)C)N(C)C(=O)[C@@H](C)OC(=O)[C@H](CC(C)C)N(C)C(=O)[C@@H](Cc4cccc(Cn5cc(OC)cn5)c4)OC(=O)[C@H](CC(C)C)N(C)C(=O)[C@@H](C)OC(=O)[C@H](CC(C)C)N(C)C3=O)c2)c1 [Example 4-9, (3S,6R,9S,12R,15S,18R,21S,24R)-3,9,15,21-tetraisobutyl-6,18-bis(3-((4-methoxy-1H-pyrazol-1-yl)methyl)benzyl)-4,10,12,16,22,24-hexamethyl-1,7,13,19-tetraoxa-4,10,16,22-tetraazacyclotetracosan-2,5,8,11,14,17,20,23-octaone] | 0.01 to 0.1 |
| CC(C)C[C@H]1C(=O)O[C@H](Cc2cccc(Cn3nc(C#N)cc3C#N)c2)C(=O)N(C)[C@@H](CC(C)C)C(=O)O[C@H](C)C(=O)N(C)[C@@H](CC(C)C)C(=O)O[C@H](Cc2cccc(Cn3nc(C#N)cc3C#N)c2)C(=O)N(C)[C@@H](CC(C)C)C(=O)O[C@H](C)C(=O)N1C [Example 4-14, 1,1′-(((((2R,5S,8R,11S,14R,17S,20R,23S)-5, 11,17,23-tetraisobutyl-4,8,10,16,20,22-hexamethyl-3,6,9,12,15,18,21,24-octaoxo-1,7,13,19-tetraoxa-4,10,16,22-tetraazacyclotetracosane-2,14-diyl)bis(methylene))bis(3,1-phenylene))bis(methylene))bis(1H-pyrazole-3,5-dicarbonitrile)] | 0.001 to 0.01 |
